Laboratory results from the C3SDB collision cross section collection.
Several values for one entry are separate records, joined by “and”; a condition that tells them apart may be missing. Equal entries are not always repeated. Each block holds one compound with its values, some of them ahead of it.

What was measured:
[1] = instrument: DT, stepped-field
[2] = instrument: DT, single field
[3] = instrument: DT, single field, calibrated with Agilent tune mix (Agilent)
[4] = instrument: DT, stepped-field; remark: listed apart in the source
[5] = instrument: TW, calibrated with phosphatidylcholines (ESI+) and phosphatidylethanolamines (ESI-)

- collision cross section (N2) ([1]; [M+H]+): 197.52 Å²
- collision cross section (N2) ([1]; [M-H]-): 200.57 Å²
Structure (SMILES): CN1c2c(nc(N)[nH]c2=O)NCC1CNc1ccc(C(=O)N[C@H](CCC(=O)O)C(=O)O)cc1 (stereo partly specified) [5-Methyl-THF]

- collision cross section (N2) ([1]; [M+2H]2+): 387.3 Å²
- collision cross section (N2) ([1]; [M+3H]3+): 474.71 Å²
- collision cross section (N2) ([1]; [M+4H]4+): 549.24 Å²
- collision cross section (N2) ([1]; [M+H]+): 357.31 Å²
Structure (SMILES): CC[C@H](C)[C@H](NC(=O)[C@H](Cc1ccc(O)cc1)NC(=O)[C@@H](NC(=O)[C@H](CCCN=C(N)N)NC(=O)[C@@H](N)CC(=O)O)C(C)C)C(=O)N[C@@H](Cc1cnc[nH]1)C(=O)N1CCC[C@H]1C(=O)N[C@@H](Cc1ccccc1)C(=O)N[C@@H](Cc1cnc[nH]1)C(=O)N[C@@H](CC(C)C)C(=O)O [Angiotensin I]

- collision cross section (N2) ([1]; [M-H]-): 183.66 Å²
Structure (SMILES): CCCCC/C=C\C/C=C\C/C=C\C/C=C\CCCC(=O)O [Arachidonic acid]

- collision cross section (N2) ([1]; [M+2H]2+): 343.33 Å²
- collision cross section (N2) ([1]; [M+3H]3+): 447.61 Å²
- collision cross section (N2) ([1]; [M+H]+): 315.25 Å²
Structure (SMILES): NC(N)=NCCC[C@H](NC(=O)[C@H](Cc1ccccc1)NC(=O)[C@@H]1CCCN1C(=O)[C@H](CO)NC(=O)[C@H](Cc1ccccc1)NC(=O)CNC(=O)[C@@H]1CCCN1C(=O)[C@@H]1CCCN1C(=O)[C@@H](N)CCCN=C(N)N)C(=O)O [Bradykinin]

- collision cross section (N2) ([1]; [M-H]-): 186.17 Å²
Structure (SMILES): CCCCCCCCCCCCCCCCCCCC(=O)O [Eicosanoic acid]

- collision cross section (N2) ([1]; [M-H]-): 125.65 Å²
Structure (SMILES): N[C@@H](CCC(=O)O)C(=O)O [L-Glutamate]

- collision cross section (N2) ([1]; [M-H]-): 201.11 Å²
Structure (SMILES): CCCCCCCCCCCCCCCCCCCCCCCC(=O)O [Lignoceric acid]

- collision cross section (N2) ([1]; [M-H]-): 174.88 Å²
Structure (SMILES): CC/C=C\C/C=C\C/C=C\CCCCCCCC(=O)O [Linolenic acid]

- collision cross section (N2) ([2]; [M+H]+): 288.83 Å² and 290.58 Å²
- collision cross section (N2) ([2]; [M+Na]+): 293.18 Å²
- collision cross section (N2) ([3]; [M+HCOO]-): 291 Å²
- collision cross section (N2) ([3]; [M+H]+): 291.3 Å²
- collision cross section (N2) ([3]; [M+Na]+): 295.1 Å²
- collision cross section (N2) ([4]; [M+H]+): 303.1 Å²
- collision cross section (N2) ([5]; [M+CH3COO]-): 293.3 Å²
- collision cross section (N2) ([5]; [M+H]+): 288.5 Å²
Structure (SMILES): CCCCCC/C=C\CCCCCCCCCC(=O)O[C@H](COC(=O)CCCCCCC/C=C\CCCCCCCC)COP(=O)([O-])OCC[N+](C)(C)C [PC(36:2)]

- collision cross section (N2) ([3]; [M+NH4]+): 294.5 Å²
- collision cross section (N2) ([3]; [M+Na]+): 290.2 Å²
- collision cross section (N2) ([3]; [M-H]-): 278.7 Å²
- collision cross section (N2) ([4]; [M-H]-): 285.6 Å²
- collision cross section (N2) ([5]; [M+Na]+): 287.8 Å²
- collision cross section (N2) ([5]; [M-H]-): 277.7 Å²
Structure (SMILES): CC/C=C\C/C=C\C/C=C\CCCCCCCC(=O)O[C@H](COC(=O)CCCCCCCCC/C=C\CCCCCCCC)COP(=O)(O)OC[C@@H](O)CO [PG(38:4)]

- collision cross section (N2) ([3]; [M+H]+): 299.9 Å²
- collision cross section (N2) ([3]; [M+Na]+): 298.7 Å²
- collision cross section (N2) ([3]; [M-H]-): 291.8 Å²
- collision cross section (N2) ([4]; [M-H]-): 302 Å² and 299.6 Å²
- collision cross section (N2) ([5]; [M+Na]+): 294.5 Å²
- collision cross section (N2) ([5]; [M-H]-): 290.9 Å²
Structure (SMILES): CCCCC/C=C\C/C=C\C/C=C\CCCCC(=O)O[C@H](COC(=O)CCCCCCCCC/C=C\C/C=C\CCCCC)COP(=O)(O)O[C@H]1C(O)C(O)C(O)[C@@H](O)C1O (stereo partly specified) [PI(38:5)]

- collision cross section (N2) ([3]; [M+H]+): 283 Å²
- collision cross section (N2) ([3]; [M+Na]+): 284.2 Å²
- collision cross section (N2) ([3]; [M-H]-): 277.5 Å²
- collision cross section (N2) ([4]; [M-H]-): 285 Å² and 286.5 Å²
- collision cross section (N2) ([5]; [M-H]-): 277.4 Å²
Structure (SMILES): CCCCC/C=C\C/C=C\CCCCCCCCCCCC(=O)O[C@H](COC(=O)CCCCCCCCCCCCC)COP(=O)(O)OC[C@H](N)C(=O)O [PS(36:2)]

- collision cross section (N2) ([3]; [M+Na]+): 290.6 Å²
- collision cross section (N2) ([4]; [M-H]-): 291.4 Å²
- collision cross section (N2) ([5]; [M-H]-): 280.9 Å²
Structure (SMILES): CCCCC/C=C\C/C=C\C/C=C\CCCCCCC(=O)O[C@H](COC(=O)CCCCCCC/C=C\CCCCCCCC)COP(=O)(O)OC[C@H](N)C(=O)O [PS(38:4)]

- collision cross section (N2) ([1]; [M-H]-): 167.95 Å²
Structure (SMILES): CCCCCC/C=C\CCCCCCCC(=O)O [Palmitoleic acid]

- collision cross section (N2) ([1]; [M+H]+): 151.94 Å²
- collision cross section (N2) ([1]; [M+Na]+): 161.4 Å²
- collision cross section (N2) ([1]; [M-H]-): 150.8 Å²
Structure (SMILES): Cc1ncc(COP(=O)(O)O)c(C=O)c1O [Pyridoxal Phosphate]
